Assay results from US20110087037A1, “SYNTHESIS OF RING B ABEO-STEROLS AS NOVEL INHIBITORS OF MYCOBACTERIUM TUBERCULOSIS” (priority 2007, published 2011).
≈ marks a conversion by molar mass, not a printed value. Entries after “also recorded” stand apart in the source; their conditions may differ. Read-outs that look alike come from different tables or passages of the source.

Experiments:
Mtb H37Rv (ATCC 27294) = assay: Microplate Alamar Blue Assay (MABA), in vitro M. tuberculosis growth inhibition; type: cell-based, Mycobacterium tuberculosis; conditions: for meaningful activity against Mtb: at 64 μg/mL
VERO cells (ATCC CCL-81) = assay: Cytotoxicity against VERO cells; type: cell-based
[1] = patients on TB therapy; cited from earlier work
[2] = 16 μg/mL, Mtb H37Rv, MABA, mean of three experiments
[3] = 32 μg/mL, Mtb H37Rv, MABA, mean of three experiments
[4] = 64 μg/mL, Mtb H37Rv, MABA, mean of three experiments
[5] = 128 μg/mL, Mtb H37Rv, MABA, mean of three experiments
[6] = lowest drug concentration that effected an inhibition of ≧90% relative to untreated cultures, Mtb H37Rv
[7] = 2 μg/mL, Mtb H37Rv, MABA, mean of three experiments
[8] = 4 μg/mL, Mtb H37Rv, MABA, mean of three experiments
[9] = 8 μg/mL, Mtb H37Rv, MABA, mean of three experiments

SMILES | % Inhibition (Mtb H37Rv (ATCC 27294); [2]) | % Inhibition (Mtb H37Rv (ATCC 27294); [3]) | % Inhibition (Mtb H37Rv (ATCC 27294); [4]) | % Inhibition (Mtb H37Rv (ATCC 27294); [5]) | meaningful activity against Mtb (Mtb H37Rv (ATCC 27294)) | MIC (Mtb H37Rv (ATCC 27294); [6]) | Cyto-toxicity IC50 (VERO cells (ATCC CCL-81)) | % Inhibition (Mtb H37Rv (ATCC 27294); [7]) | % Inhibition (Mtb H37Rv (ATCC 27294); [8]) | % Inhibition (Mtb H37Rv (ATCC 27294); [9]) | Adverse reactions, Infrequent (≧1 per 1,000 patients and <1 per 100 patients) [1] | further results
CC(C)C(C)C1(C)CC1C(C)C1CCC2C3CC=C4CC(O)CCC4(C)C3CCC12C (centres unmarked) [Compound 8] | 10% | 13% | 18% | 38% | none | >128 µg/mL | >128 (n.d.) μg/mL |  |  |  |  | 
C=C(CC[C@@H](C)[C@H]1CC[C@H]2[C@@H]3CC=C4C[C@@H](O)CC[C@]4(C)[C@H]3CC[C@]12C)C(C)C [Compound 1] | 33% | 43% | 40% | 97% | none | 120.1 µg/mL (≈ 301 µM) | >128 (n.d.) μg/mL |  |  |  |  | activity against M. tuberculosis H37Rv (Mtb H37Rv (ATCC 27294)): only marginal activity
CC(C)CCC[C@@H](C)[C@H]1CC[C@H]2[C@@H]3CC=C4C[C@@H](O)CC[C@]4(C)[C@H]3CC[C@]12C [Compound 6, cholesterol] |  |  |  |  | none |  |  |  |  |  |  | inhibition at 16 µg/mL (Mtb H37Rv (ATCC 27294); Mycobacterium tuberculosis, 16 μg/mL, Mtb H37Rv, MABA, mean of three experiments): 33%; inhibition at 32 µg/mL (Mtb H37Rv (ATCC 27294); Mycobacterium tuberculosis, 32 μg/mL, Mtb H37Rv, MABA, mean of three experiments): 13%; inhibition at 64 µg/mL (Mtb H37Rv (ATCC 27294); Mycobacterium tuberculosis, 64 μg/mL, Mtb H37Rv, MABA, mean of three experiments): 24%; inhibition at 128 µg/mL (Mtb H37Rv (ATCC 27294); Mycobacterium tuberculosis, 128 μg/mL, Mtb H37Rv, MABA, mean of three experiments): 57%; MIC (Mtb H37Rv (ATCC 27294); Mycobacterium tuberculosis, read-out: MIC): > 128 µg/mL
CC(C)[C@@H](C)CC[C@@H](C)[C@H]1CC[C@H]2[C@@H]3C(C=O)=C4C[C@@H](O)CC[C@]4(C)[C@H]3CC[C@]12C [Compound 11] | 99% | 99% | 100% | 99% |  | 3.9 µg/mL (≈ 9.4 µM) |  | 39% | 94% | 97% |  | 
CC(C)C(=O)CC[C@@H](C)[C@H]1CC[C@H]2[C@@H]3C(C=O)=C4C[C@@H](O)CC[C@]4(C)[C@H]3CC[C@]12C [Compound 3] | 92% | 96% | 100% | 99% |  | 13.6 µg/mL (≈ 32.8 µM) | 43.8 µg/mL | 52% | 67% | 83% |  | 
CC(C)[C@@H](C)CC[C@@H](C)[C@H]1CC[C@H]2[C@@H]3CC=C4C[C@@H](O)CC[C@]4(C)[C@H]3CC[C@]12C [Compound 10] | 21% | 31% | 41% | 58% | none | >128 µg/mL | >128 (n.d.) μg/mL | 15% | 14% | 23% |  | 
CO[C@H]1/C=C/O[C@@]2(C)Oc3c(C)c(O)c4c(O)c(c(/C=N/N5CCN(C)CC5)c(O)c4c3C2=O)NC(=O)/C(C)=C\C=C\[C@H](C)[C@H](O)[C@@H](C)[C@@H](O)[C@@H](C)[C@H](OC(C)=O)[C@@H]1C [RMP, Rifampin] |  |  |  |  |  |  |  |  |  |  | Hepatitis; also recorded: Pruritus; also recorded: Flu syndrome; also recorded: Drug fever | Adverse reactions, Frequent (≧5 per 100 patients) [1]: Liver enzyme elevations; also recorded: Orange discoloration
CCC(CCC(C)C1CCC2C3CC=C4CC(O)CCC4(C)C3CCC12C)C(C)C (centres unmarked) [Compound 4] | 32% | 31% | 48% | 45% | none | >128 µg/mL | >128 (n.d.) μg/mL | −1% | 8% | 7% |  | 
NNC(=O)c1ccncc1 [Isoniazid] |  |  |  |  |  |  |  |  |  |  | Hepatitis; also recorded: Peripheral neuropathy; also recorded: Drug fever | Adverse reactions, Frequent (≧5 per 100 patients) [1]: Liver enzyme
CC[C@@H](CO)NCCN[C@@H](CC)CO [Ethambutol] |  |  |  |  |  |  |  |  |  |  | Retrobulbar neuritis; also recorded: Periaxial ocular toxicity | 
NC(=O)c1cnccn1 [Pyrazinamide] |  |  |  |  |  |  |  |  |  |  | Hepatitis and Rash and Nausea | Adverse reactions, Common (≧1-5 per 100 patients) [1]: Nausea; Adverse reactions, Frequent (≧5 per 100 patients) [1]: Arthralgias
CCC(CCC(C)C1CCC2C3C(C=O)=C4CC(O)CCC4(C)C3CCC12C)C(C)C (centres unmarked) [Compound 5] | 98% | 99% | 99% | 99% |  | 3.8 µg/mL (≈ 8.86 µM) | 26.6 µg/mL | 29% | 97% | 99% |  | 
[H]/N=C(/N)N[C@H]1[C@H](O)[C@@H](O)[C@H](O[C@@H]2O[C@@H](C)[C@](O)(C=O)[C@H]2O[C@@H]2O[C@@H](CO)[C@H](O)[C@@H](O)[C@@H]2NC)[C@@H](N/C(N)=N\[H])[C@@H]1O [Streptomycin] |  |  |  |  |  |  |  |  |  |  | Renal damage | Adverse reactions, Common (≧1-5 per 100 patients) [1]: Cochlear toxicity; also recorded: Hypersensitivity; Adverse reactions, Frequent (≧5 per 100 patients) [1]: Vestibular toxicity
C=C(CC[C@@H](C)[C@H]1CC[C@H]2[C@@H]3C(C=O)=C4C[C@@H](O)CC[C@]4(C)[C@H]3CC[C@]12C)C(C)C [Compound 2] | 105% | 99% | 99% | 99% |  | 7.8 µg/mL (≈ 18.9 µM) | 51 µg/mL | 52% | 69% | 91% |  | 
CC(C)C(C)C1(C)CC1C(C)C1CCC2C3C(C=O)=C4CC(O)CCC4(C)C3CCC12C (centres unmarked) [Compound 9] | 96% | 98% | 99% | 99% |  | 12.7 µg/mL (≈ 28.8 µM) |  | 17% | 33% | 81% |  | 
CC(C)CCC[C@@H](C)[C@H]1CC[C@H]2[C@@H]3C(C=O)=C4C[C@@H](O)CC[C@]4(C)[C@H]3CC[C@]12C [Compound 7] | 96% | 99% | 99% | 99% |  | 15 µg/mL (≈ 37.4 µM) | > 128 µg/mL | 10% | 34% | 51% |  | 
